Source: patent US10087229B2, “Peptide compound” (TAKEDA PHARMACEUTICAL COMPANY LIMITED, priority 2013, dated 2018)
Square brackets hold non-standard residues; d marks the D form. Peptide text beside a SMILES is read from it. NMeY = CN[C@@H](Cc1ccc(O)cc1)C(=O)O; αMeF = C[C@](N)(Cc1ccccc1)C(=O)O; Aib = CC(C)(N)C(=O)O

Assays:
male C57BL/6J mouse = experiment: 2-days continuous subcutaneous administration test (feeding suppressive activity); type: in vivo; settings: 10 nmol/kg/day, subcutaneous Alzet pump, 2-days cumulative food consumption, control (solvent alone) = 0%
In short: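 Male C57BL/6J mice, 8-9 weeks, given test compound at 10 nmol/kg/day by subcutaneously implanted osmotic pump (50% DMSO vehicle), housed singly with free food access. Cumulative 2-day food consumption measured; suppression rate (%) calculated relative to vehicle-only controls.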

human glucagon R = molecular target: T1, human glucagon R (Homo sapiens, UniProt P47871); experiment: Reporter assay of human glucagon R agonist activity, rise in intracellular cAMP as index (hGlucagonR/CRE-LUC/CHO-K1 cells); type: cell-based; settings: luciferase reporter; 10 nM glucagon = 100%, DMSO = 0%; 4 hours incubation; read-out: Agonist activity (EC50) hGCGR
T1 construct: expressed in transfected cells; host or cells: CHO-K1 (CRE-LUC/CHO-K1 reporter cells)
Description: Evaluation of agonist activity against human GIPR, human GLP-1R and human glucagon R using rise in intracellular cAMP concentration as index
(2) Construction of Reporter Plasmid-Expressing Cell
The luciferase reporter gene having an upstream cAMP response sequence was introduced to CHO-K1 cells to construct CRE-LUC/CHO-K1 cells.
(7) Construction of Expression Plasmid for the Human Glucagon R Gene
The human glucagon R gene having a sequence identical to the sequence of GenBank Accession No. NM_000160 was cloned into pMSRα-neo vector to prepare hGlucagonR/pMSRα-neo.
(8) Introduction of the Human Glucagon R Gene into CRE-LUC/CHO-K1 Cell and Obtainment of Expressing Cell […]
The hGIPR/CRE-LUC/CHO-K1 cells were inoculated at a cell density of 25 μL/well (5×10^4 cells/well) to a 384-well white plate (Corning), and cultured overnight in Ham F12 medium containing 10% fetal bovine serum, 100 U/mL penicillin and 100 μg/mL streptomycin in a CO2 incubator of 37° C. […] After 30 minutes, the luciferase activity was measured using a plate reader Envision (PerkinElmer). […] The GIPR agonist activity was calculated with a rise in intracellular cAMP concentration as an index.
The glucagon R agonist activity was assayed in the same way as above using the hGlucagonR/CRE-LUC/CHO-K1 cells. […] The glucagon agonist activity was calculated with a rise in intracellular cAMP concentration as an index.

[1] = tested on: Diet-induced obesity (DIO) male C57BL/6J mice; experiment: 2-weeks continuous subcutaneous administration study in DIO mice (anti-obesity activity); type: in vivo, mouse; settings: 1 nmol/kg/day, subcutaneous Alzet pump, 2 weeks after start of administration; rate of weight loss, control group regarded as 0%
Description: 2-Weeks Continuous Subcutaneous Administration Study in DIO Mice
The anti-obesity activity of a test compound was examined by the method described below.
Diet-induced obesity (DIO) mice were prepared by feeding male C57BL/6J mice with high-fat diet (D12451: Research Diets, Inc.). The test compound was dissolved in a solvent (50% DMSO) so that sustained release would occur at 1 nmol/kg/day, and the solution was filled in the Alzet Pump (DURECT Corporation, model: 1002). The pump thus filled with the solution to be administered was immersed in physiological saline for priming, and then used. The pump was embedded by the following method. Each male DIO-C57BL/6J mouse at 35-37 weeks of age (20-26° C., allowed to take food and water ad libitum; 12-hour bright-12-hour dark cycle) was anesthetized; the skin in the upper back thereof was incised, and the above-mentioned pump was embedded subcutaneously; the incision was sutured. After weighing, this mouse was returned to the rearing cage (reared alone), and given previously weighed food; the body weight was measured every 1 to 3 days after the start of administration. The anti-obesity activity of each test compound was evaluated on the basis of the rate of weight loss 2 weeks after the start of administration, with the rate of weight loss in a control group receiving administration of the solvent alone regarded as 0%.

T1 sequence (P47871 26-477): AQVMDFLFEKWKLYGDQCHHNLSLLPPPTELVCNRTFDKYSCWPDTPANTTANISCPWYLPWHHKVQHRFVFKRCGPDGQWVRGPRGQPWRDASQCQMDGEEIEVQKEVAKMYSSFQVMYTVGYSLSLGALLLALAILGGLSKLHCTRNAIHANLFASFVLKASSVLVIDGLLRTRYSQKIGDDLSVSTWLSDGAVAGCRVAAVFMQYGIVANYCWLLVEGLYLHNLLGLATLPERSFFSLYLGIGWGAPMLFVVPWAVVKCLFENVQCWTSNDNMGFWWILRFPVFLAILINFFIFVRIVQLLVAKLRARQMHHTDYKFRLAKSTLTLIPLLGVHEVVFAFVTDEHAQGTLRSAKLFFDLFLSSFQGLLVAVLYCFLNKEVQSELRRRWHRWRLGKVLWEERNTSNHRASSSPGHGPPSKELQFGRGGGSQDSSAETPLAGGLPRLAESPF

| SMILES | Food intake suppression (%) (male C57BL/6J mouse) | EC50 (human glucagon R) [nM] | Change in body weight [1] |
| --- | --- | --- | --- |
| CC[C@H](C)[C@H](NC(=O)C(C)(C)NC(=O)[C@H](Cc1ccc(O)cc1)NC(=O)[C@H](CC(=O)O)NC(=O)[C@H](CO)NC(=O)[C@@H](NC(=O)[C@](C)(Cc1ccccc1)NC(=O)[C@@H](NC(=O)CNC(=O)[C@H](CCC(=O)O)NC(=O)C(C)(C)NC(=O)[C@H](Cc1ccc(O)cc1)NC)[C@@H](C)O)[C@@H](C)O)C(=O)NC(C)(C)C(=O)N[C@@H](CC(C)C)C(=O)N[C@@H](CC(=O)O)C(=O)N[C@@H](CCCCN)C(=O)N[C@@H](CCC(N)=O)C(=O)N[C@@H](C)C(=O)N[C@@H](CCC(N)=O)C(=O)N[C@@H](C)C(=O)N[C@@H](CCC(=O)O)C(=O)N[C@@H](Cc1ccccc1)C(=O)N[C@H](C(=O)N[C@@H](CCCCN)C(=O)N[C@@H](Cc1c[nH]c2ccccc12)C(=O)N[C@@H](CC(C)C)C(=O)N[C@@H](CC(C)C)C(=O)N[C@@H](CCCCN)C(=O)NCC(=O)NCC(=O)N1CCC[C@H]1C(=O)N[C@@H](CO)C(=O)N[C@@H](CO)C(=O)NCC(=O)N[C@@H](C)C(=O)N1CCC[C@H]1C(=O)N1CCC[C@H]1C(=O)N1CCC[C@H]1C(=O)N[C@@H](CO)C(=O)N[C@@H](CCCCN)C(N)=O)C(C)C [Example 23] (H-[NMeY][Aib]EGT[αMeF]TSDY[Aib]I[Aib]LDKQAQAEFVKWLLKGGPSSGAPPPSK-NH2) | 52.62 | > 1000 | – |
| CC(C)C[C@H](NC(=O)[C@H](CC(C)C)NC(=O)[C@H](Cc1c[nH]c2ccccc12)NC(=O)[C@H](CCCCN)NC(=O)[C@@H](NC(=O)[C@H](Cc1ccccc1)NC(=O)[C@H](CCC(=O)O)NC(=O)[C@H](CCC(N)=O)NC(=O)[C@H](CCC(N)=O)NC(=O)[C@H](C)NC(=O)[C@H](CCC(N)=O)NC(=O)[C@H](CCCCN)NC(=O)[C@H](CC(=O)O)NC(=O)[C@H](CC(C)C)NC(=O)[C@H](Cc1ccc(O)cc1)NC(=O)[C@H](CCCCN)NC(=O)C(C)(C)NC(=O)[C@H](Cc1ccc(O)cc1)NC(=O)[C@H](CC(=O)O)NC(=O)[C@H](CO)NC(=O)[C@@H](NC(=O)[C@](C)(Cc1ccccc1)NC(=O)[C@@H](NC(=O)CNC(=O)[C@H](CCC(=O)O)NC(=O)C(C)(C)NC(=O)[C@@H](N)Cc1ccc(O)cc1)[C@@H](C)O)[C@@H](C)O)C(C)C)C(=O)N[C@@H](CCCCN)C(=O)NCC(=O)NCC(=O)N1CCC[C@H]1C(=O)N[C@@H](CO)C(=O)N[C@@H](CO)C(=O)NCC(=O)N[C@@H](C)C(=O)N1CCC[C@H]1C(=O)N1CCC[C@H]1C(=O)N1CCC[C@H]1C(=O)N[C@@H](CO)C(=O)N[C@@H](CCCCN)C(N)=O [Example 25] (H-Y[Aib]EGT[αMeF]TSDY[Aib]KYLDKQAQQEFVKWLLKGGPSSGAPPPSK-NH2) | 53.12 | – | −11.2 |
| CC[C@H](C)[C@H](NC(=O)C(C)(C)NC(=O)[C@H](Cc1ccc(O)cc1)NC(=O)[C@H](CC(=O)O)NC(=O)[C@H](CO)NC(=O)[C@@H](NC(=O)[C@](C)(Cc1ccccc1)NC(=O)[C@@H](NC(=O)CNC(=O)[C@H](CCC(=O)O)NC(=O)C(C)(C)NC(=O)[C@@H](N)Cc1ccc(O)cc1)[C@@H](C)O)[C@@H](C)O)C(=O)NC(C)(C)C(=O)N[C@@H](CC(C)C)C(=O)N[C@@H](CC(=O)O)C(=O)N[C@@H](CCCCN)C(=O)N[C@@H](CCC(N)=O)C(=O)N[C@@H](C)C(=O)N[C@@H](CCC(N)=O)C(=O)N[C@@H](C)C(=O)N[C@@H](CCC(=O)O)C(=O)N[C@@H](Cc1ccccc1)C(=O)N[C@H](C(=O)N[C@@H](CCCCN)C(=O)N[C@@H](Cc1c[nH]c2ccccc12)C(=O)N[C@@H](CC(C)C)C(=O)N[C@@H](CC(C)C)C(=O)N[C@@H](CCCCN)C(=O)NCC(=O)NCC(=O)N1CCC[C@H]1C(=O)N[C@@H](CO)C(=O)N[C@@H](CO)C(=O)NCC(=O)N[C@@H](C)C(=O)N1CCC[C@H]1C(=O)N1CCC[C@H]1C(=O)N1CCC[C@H]1C(=O)N[C@@H](CO)C(=O)N[C@@H](CCCCN)C(N)=O)C(C)C [Example 2] (H-Y[Aib]EGT[αMeF]TSDY[Aib]I[Aib]LDKQAQAEFVKWLLKGGPSSGAPPPSK-NH2) | 64.80 | – | −16.3 |
